Source: patent publication US11970498B2, “CDK2 inhibitors” (BLUEPRINT MEDICINES CORPORATION, priority 2021, dated 2024)

Experiments:
CDK2/Cyclin E = CDK2/Cyclin E (Homo sapiens, UniProt P24941); assay: CDK2/Cyclin E biochemical phosphorylation assay (Caliper mobility shift); details: apparent IC50; 1.0 mM ATP or ATP Km; 1.25 nM enzyme; 25° C.; read-out: CDK2/cyclin E1 IC50
Method: (§1) Inhibitory effects of the compounds of the disclosure were measured in biochemical assays that measure the enzymatic phosphorylation activity of CDK enzyme in complex of Cyclin proteins phosphorylates 7.5 micromolar fluorescently labelled peptide substrate, 5-FAM-QSPKKG-CONH2, (FL-Peptide 18, Perkin Elmer, 760362) in the presence of adenosine-5′-triphosphate (ATP) and varying concentrations of the test compound in 100 mM 2-[4-(2-hydroxyethyl)piperazin-1-yl] ethanesulfonic acid (HEPES), pH 7.5, 10 mM MgCl2, 0.015% Brij-35, 1 mM dithiothreitol (DTT), 1.0% dimethylsulfoxide (DMSO). Assays were performed at 1.0 mM ATP or at ATP Km of the CDK enzymes in complex with Cyclin proteins. Reactions proceeded until between 10% to 20% total peptides were phosphorylated at room temperature (25° C.) and were terminated with 35 mM 2,2′,2″,2′″-(ethane-1,2-diyldinitrilo)tetraacetic acid (EDTA). Product was detected using the Caliper mobility shift detection method where the phosphorylated peptide (product) and substrate were electrophoretically separated and measured. Percent activity was plotted against log concentration of compound and points to generate an apparent IC50. The following CDK enzymes in complex with different cyclin proteins were used in these assays: • CDK1/Cyclin B1, GST-tag (BPS, 40454), 1.5 nM used in the assay • CDK2/Cyclin E (Eurofins, 14-475), 1.25 nM used in the assays
(§2) For inhibitory activity against CDK2/Cyclin E mutant, the following designations are used: ≤10 nM=A; >10-20 nM=B; >20-30 nM=C; >30-100 nM=D and >100=E. For inhibition CDK1/Cyclin B1, GST-tag: ≥500 nM=A; <100-500 nM=B; <100 nM=C.

CDK1/Cyclin B1, GST-tag = target: T1, CDK1/Cyclin B1, GST-tag (Homo sapiens, UniProt P06493); assay: CDK1/Cyclin B1 biochemical phosphorylation assay (Caliper mobility shift); details: apparent IC50; 1.0 mM ATP or ATP Km; 1.5 nM enzyme; 25° C.
T1 construct: GST
T1 sequence (P06493 whole entry): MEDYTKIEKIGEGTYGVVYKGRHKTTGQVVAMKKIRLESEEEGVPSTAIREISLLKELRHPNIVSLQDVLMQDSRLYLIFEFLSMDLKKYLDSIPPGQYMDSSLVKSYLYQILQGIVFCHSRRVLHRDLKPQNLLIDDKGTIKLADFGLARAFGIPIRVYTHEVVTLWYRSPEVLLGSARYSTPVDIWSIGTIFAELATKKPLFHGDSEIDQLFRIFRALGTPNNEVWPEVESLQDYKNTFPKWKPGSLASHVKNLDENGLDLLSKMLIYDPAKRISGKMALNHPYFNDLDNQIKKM
T1 sequence (P14635 whole entry partner): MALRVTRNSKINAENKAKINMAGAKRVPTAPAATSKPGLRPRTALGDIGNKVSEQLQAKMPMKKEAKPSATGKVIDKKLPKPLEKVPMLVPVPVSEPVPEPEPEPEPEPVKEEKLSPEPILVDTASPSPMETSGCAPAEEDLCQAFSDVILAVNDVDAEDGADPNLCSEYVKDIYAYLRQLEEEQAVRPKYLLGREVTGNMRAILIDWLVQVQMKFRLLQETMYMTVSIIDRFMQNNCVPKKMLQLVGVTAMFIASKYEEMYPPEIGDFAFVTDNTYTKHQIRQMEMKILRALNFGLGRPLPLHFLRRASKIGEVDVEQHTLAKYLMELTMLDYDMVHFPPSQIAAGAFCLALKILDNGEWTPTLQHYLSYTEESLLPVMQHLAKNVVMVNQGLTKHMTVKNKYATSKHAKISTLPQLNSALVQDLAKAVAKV
Method: as §1, §2

IC50 (CDK2/Cyclin E) [µM] | IC50 (CDK1/Cyclin B1, GST-tag) [µM] | Compound
0.03 to 0.1 | ≥ 0.5 | O[C@H]1C[C@H](Cn2ncc3ncc(Nc4cc(OC(F)F)[nH]n4)nc32)C1 [Example 220, (1r,3r)-3-((6-((5-(difluoromethoxy)-1H-pyrazol-3-yl)amino)-1H-pyrazolo[3,4-b]pyrazin-1-yl)methyl)cyclobutan-1-ol]
0.02 to 0.03 | ≥ 0.5 | Fc1cncc(Cn2ncc3ncc(Nc4cc(OC(F)F)[nH]n4)nc32)c1 [Example 42, N-(5-(difluoromethoxy)-1H-pyrazol-3-yl)-1-((5-fluoropyridin-3-yl)methyl)-1H-pyrazolo[3,4-b]pyrazin-6-amine]
0.03 to 0.1 | ≥ 0.5 | C[C@@H](CCO)n1ncc2ncc(Nc3cc(OC(F)F)[nH]n3)nc21 (single isomer, unassigned) [Example 205, (S)-3-(6-((5-(difluoromethoxy)-1H-pyrazol-3-yl)amino)-1H-pyrazolo[3,4-b]pyrazin-1-yl)butan-1-ol or (R)-3-(6-((5-(difluoromethoxy)-1H-pyrazol-3-yl)amino)-1H-pyrazolo[3,4-b]pyrazin-1-yl)butan-1-ol]
≤ 0.01 | 0.1 to 0.5 | C[C@]1(Cn2ncc3ncc(Nc4cc(OC(F)F)[nH]n4)nc32)CCOC1 (single isomer, unassigned) [Example 166, (S)-N-(5-(difluoromethoxy)-1H-pyrazol-3-yl)-1-((3-methyltetrahydrofuran-3-yl)methyl)-1H-pyrazolo[3,4-b]pyrazin-6-amine or (R)-N-(5-(difluoromethoxy)-1H-pyrazol-3-yl)-1-((3-methyltetrahydrofuran-3-yl)methyl)-1H-pyrazolo[3,4-b]pyrazin-6-amine]
0.01 to 0.02 | ≥ 0.5 | COc1cc(Nc2cnc3cnn(C[C@@H]4CCCOC4)c3n2)n[nH]1 [Example 139, (S)-N-(5-methoxy-1H-pyrazol-3-yl)-1-((tetrahydro-2H-pyran-3-yl)methyl)-1H-pyrazolo[3,4-b]pyrazin-6-amine]
≤ 0.01 | 0.1 to 0.5 | COc1cc(Nc2cnc3cnn([C@@H](CF)C4CCOCC4)c3n2)n[nH]1 (single isomer, unassigned) [Example 194, (R)-1-(2-fluoro-1-(tetrahydro-2H-pyran-4-yl)ethyl)-N-(5-methoxy-1H-pyrazol-3-yl)-1H-pyrazolo[3,4-b]pyrazin-6-amine or (S)-1-(2-fluoro-1-(tetrahydro-2H-pyran-4-yl)ethyl)-N-(5-methoxy-1H-pyrazol-3-yl)-1H-pyrazolo[3,4-b]pyrazin-6-amine]
0.03 to 0.1 | ≥ 0.5 | FC(F)Oc1cc(Nc2cnc3cnn([C@H](C4CCOCC4)C4CC4)c3n2)n[nH]1 (single isomer, unassigned) [Example 157, (S)-1-(cyclopropyl(tetrahydro-2H-pyran-4-yl)methyl)-N-(5-(difluoromethoxy)-1H-pyrazol-3-yl)-1H-pyrazolo[3,4-b]pyrazin-6-amine or (R)-1-(cyclopropyl(tetrahydro-2H-pyran-4-yl)methyl)-N-(5-(difluoromethoxy)-1H-pyrazol-3-yl)-1H-pyrazolo[3,4-b]pyrazin-6-amine]
0.01 to 0.02 | ≥ 0.5 | COc1cc(Nc2cnc3cnn([C@@H](C)C4CC4)c3n2)n[nH]1 [Example 68, (S)-1-(1-cyclopropylethyl)-N-(5-methoxy-1H-pyrazol-3-yl)-1H-pyrazolo[3,4-b]pyrazin-6-amine]
0.02 to 0.03 | ≥ 0.5 | OC1(Cn2ncc3ncc(Nc4cc(OC(F)F)[nH]n4)nc32)CCC1 [Example 125, 1-((6-((5-(difluoromethoxy)-1H-pyrazol-3-yl)amino)-1H-pyrazolo[3,4-b]pyrazin-1-yl)methyl)cyclobutan-1-ol]
≤ 0.01 | ≥ 0.5 | C[C@@H](c1cccnc1Cl)n1ncc2ncc(Nc3cc(OC(F)F)[nH]n3)nc21 [Example 60, (S)-1-(1-(2-chloropyridin-3-yl)ethyl)-N-(5-(difluoromethoxy)-1H-pyrazol-3-yl)-1H-pyrazolo[3,4-b]pyrazin-6-amine]
0.03 to 0.1 | ≥ 0.5 | FC(F)Oc1cc(Nc2cnc3cnn(Cc4nccs4)c3n2)n[nH]1 [Example 54, N-(5-(difluoromethoxy)-1H-pyrazol-3-yl)-1-(thiazol-2-ylmethyl)-1H-pyrazolo[3,4-b]pyrazin-6-amine]
0.01 to 0.02 | ≥ 0.5 | FC(F)Oc1cc(Nc2cnc3cnn(C[C@H]4CCOC4)c3n2)n[nH]1 (single isomer, unassigned) [Example 143, (R)-N-(5-(difluoromethoxy)-1H-pyrazol-3-yl)-1-((tetrahydrofuran-3-yl)methyl)-1H-pyrazolo[3,4-b]pyrazin-6-amine or (S)-N-(5-(difluoromethoxy)-1H-pyrazol-3-yl)-1-((tetrahydrofuran-3-yl)methyl)-1H-pyrazolo[3,4-b]pyrazin-6-amine]
0.01 to 0.02 | ≥ 0.5 | O[C@H]1CC[C@@H](Cn2ncc3ncc(Nc4cc(OC(F)F)[nH]n4)nc32)CC1 (single isomer, unassigned) [Example 172, (1r,4r)-4-((6-((5-(difluoromethoxy)-1H-pyrazol-3-yl)amino)-1H-pyrazolo[3,4-b]pyrazin-1-yl)methyl)cyclohexan-1-ol or (1s,4s)-4-((6-((5-(difluoromethoxy)-1H-pyrazol-3-yl)amino)-1H-pyrazolo[3,4-b]pyrazin-1-yl)methyl)cyclohexan-1-ol]
> 0.1 | ≥ 0.5 | FC(F)Oc1cc(Nc2cnc3cnn([C@H](c4ccccc4)C4COC4)c3n2)n[nH]1 (single isomer, unassigned) [Example 162, (R)-N-(5-(difluoromethoxy)-1H-pyrazol-3-yl)-1-(oxetan-3-yl(phenyl)methyl)-1H-pyrazolo[3,4-b]pyrazin-6-amine or (S)-N-(5-(difluoromethoxy)-1H-pyrazol-3-yl)-1-(oxetan-3-yl(phenyl)methyl)-1H-pyrazolo[3,4-b]pyrazin-6-amine]
0.01 to 0.02 | ≥ 0.5 | CC1(Cn2ncc3ncc(Nc4cc(OC(F)F)[nH]n4)nc32)CC1 [Example 98, N-(5-(difluoromethoxy)-1H-pyrazol-3-yl)-1-((1-methylcyclopropyl)methyl)-1H-pyrazolo[3,4-b]pyrazin-6-amine]
≤ 0.01 | 0.1 to 0.5 | FC(F)Oc1cc(Nc2cnc3cnn(C[C@H]4CCCOC4)c3n2)n[nH]1 (single isomer, unassigned) [Example 142, (S)-N-(5-(difluoromethoxy)-1H-pyrazol-3-yl)-1-((tetrahydro-2H-pyran-3-yl)methyl)-1H-pyrazolo[3,4-b]pyrazin-6-amine or (R)-N-(5-(difluoromethoxy)-1H-pyrazol-3-yl)-1-((tetrahydro-2H-pyran-3-yl)methyl)-1H-pyrazolo[3,4-b]pyrazin-6-amine]
0.02 to 0.03 | ≥ 0.5 | COc1cc(Nc2cnc3cnn(Cc4cncs4)c3n2)n[nH]1 [Example 75, N-(5-methoxy-1H-pyrazol-3-yl)-1-(thiazol-5-ylmethyl)-1H-pyrazolo[3,4-b]pyrazin-6-amine]
≤ 0.01 | ≥ 0.5 | C[C@@H](c1ccc(F)nc1)n1ncc2ncc(Nc3cc(OC(F)F)[nH]n3)nc21 (single isomer, unassigned) [Example 151, (S)-N-(5-(difluoromethoxy)-1H-pyrazol-3-yl)-1-(1-(6-fluoropyridin-3-yl)ethyl)-1H-pyrazolo[3,4-b]pyrazin-6-amine or (R)-N-(5-(difluoromethoxy)-1H-pyrazol-3-yl)-1-(1-(6-fluoropyridin-3-yl)ethyl)-1H-pyrazolo[3,4-b]pyrazin-6-amine]
≤ 0.01 | 0.1 to 0.5 | FC(F)Oc1cc(Nc2cnc3cnn(CCc4cn[nH]c4)c3n2)n[nH]1 [Example 129, 1-(2-(1H-pyrazol-4-yl)ethyl)-N-(5-(difluoromethoxy)-1H-pyrazol-3-yl)-1H-pyrazolo[3,4-b]pyrazin-6-amine]
0.03 to 0.1 | ≥ 0.5 | C[C@@H](c1cc(Cl)ccn1)n1ncc2ncc(Nc3cc(OC(F)F)[nH]n3)nc21 (single isomer, unassigned) [Example 188, (S)-1-(1-(4-chloropyridin-2-yl)ethyl)-N-(5-(difluoromethoxy)-1H-pyrazol-3-yl)-1H-pyrazolo[3,4-b]pyrazin-6-amine or (R)-1-(1-(4-chloropyridin-2-yl)ethyl)-N-(5-(difluoromethoxy)-1H-pyrazol-3-yl)-1H-pyrazolo[3,4-b]pyrazin-6-amine]
≤ 0.01 | ≥ 0.5 | FC(F)Oc1cc(Nc2cnc3cnn(CC45CC(F)(C4)C5)c3n2)n[nH]1 [Example 116, N-(5-(difluoromethoxy)-1H-pyrazol-3-yl)-1-((3-fluorobicyclo[1.1.1]pentan-1-yl)methyl)-1H-pyrazolo[3,4-b]pyrazin-6-amine]

Compound | IC50 (CDK2/Cyclin E) [µM] | IC50 (CDK1/Cyclin B1, GST-tag) [µM]
C[C@@H]([C@H]1CCOC1)n1ncc2ncc(Nc3cc(OC(F)F)[nH]n3)nc21 (single isomer, unassigned) [Example 12] | 0.03 to 0.1 | ≥ 0.5
